According to patent US20050153894A1, “p21 peptides” (Cyclacel Limited, priority 1999, published 2005):

What was measured:
[1] = target: T1, CDK2/Cyclin E (Homo sapiens, UniProt P24864); test: CDK2/Cyclin E kinase assay, phosphorylation of GST-Rb; format: biochemical; details: for Kinase Inhibition Cyclin E/CDK2 % Inhibition / Kinase Inhibition Cyclin E/CDK2 IC30: GST-pRb substrate, [ATP] = 100 μM
T1 construct: 6xHis; made in house; host or cells: Sf9 insect cells (baculovirus co-expression)
Method: (§1) The phosphorylation reaction mixture (total volume 40 μl) consisted of 50 mM HEPES pH 7.4, 20 mM MgCl2, 5 mM EGTA, 2 mM DTT, 20 mM β-glycerophosphate, 2 mM NaF, 1 mM Na3VO4, Protease Inhibitors Cocktail (Sigma, see above), BSA 0.5 mg/ml, 1 μg purified enzyme complex, 10 μl of GST-Rb-Sepharose beads, 100 μM ATP, 0.2 μCi ^32P-ATP. The reaction was carried out for 30 min at 30° C. at constant shaking. At the end of this period 100 μl of 50 mM HEPES, pH 7.4 and 1 mM ATP were added to each well and the total volume was transferred onto GFC filtered plate. The plate was washed 5 times with 200 μl of 50 mM HEPES, pH 7.4 and 1 mM ATP. To each well were added 50 μl scintillant liquid and the radioactivity of the samples was measured on Scintilation counter (Topcount, HP). The IC50 values of different peptides were calculated using GraFit software.

[2] = target: T2, CDK4/Cyclin D1 (Homo sapiens, UniProt P24385); test: CDK4/Cyclin D1 kinase assay, phosphorylation of GST-Rb; format: biochemical; details: for Kinase Inhibition Cyclin D1/CDK4 % Inhibition / Kinase Inhibition Cyclin D1/CDK4 IC30: GST-pRb substrate, [ATP] = 100 μM
T2 construct: made in house; host or cells: CDK4: Sf9 insect cells (baculovirus)
T2 sequence (P24385 whole entry): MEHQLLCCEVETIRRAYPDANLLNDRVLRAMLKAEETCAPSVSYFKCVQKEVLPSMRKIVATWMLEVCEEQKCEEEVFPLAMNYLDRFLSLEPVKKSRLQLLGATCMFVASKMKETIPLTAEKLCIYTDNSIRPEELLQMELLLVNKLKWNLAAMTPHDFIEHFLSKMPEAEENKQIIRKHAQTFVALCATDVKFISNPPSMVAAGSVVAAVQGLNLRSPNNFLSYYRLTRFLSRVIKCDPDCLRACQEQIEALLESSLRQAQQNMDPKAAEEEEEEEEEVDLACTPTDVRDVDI
T2 sequence (P11802 whole entry partner): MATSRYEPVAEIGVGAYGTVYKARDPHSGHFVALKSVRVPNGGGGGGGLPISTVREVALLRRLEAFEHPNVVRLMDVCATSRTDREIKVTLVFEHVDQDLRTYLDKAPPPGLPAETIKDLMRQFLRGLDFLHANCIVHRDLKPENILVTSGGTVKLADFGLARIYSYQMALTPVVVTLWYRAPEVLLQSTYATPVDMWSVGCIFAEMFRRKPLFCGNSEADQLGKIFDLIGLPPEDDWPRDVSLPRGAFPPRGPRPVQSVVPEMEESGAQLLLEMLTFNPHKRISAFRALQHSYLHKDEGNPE
Method: as §1
Peptides were synthesized as described above. Cyclin D1 was expressed in E coli BL21(DE3) using PET expression vector and purified from the inclusion bodies. After refolding Cyclin D1 was cross-linked on SulfoLink agarose support (PIERCE). CDK4-6×His was expressed in Sf9 insect cells infected with the appropriate baculovirus construct and purified by metal-affinity chromatography (Quiagen). […] CDK4/Cyclin D1 phosphorilation of Rb was determined by incorporation of radio-labeled phosphate in GST-Rb in 96-well format kinase assay. […] The reaction was carried out for 30 min at 30 C at constant shaking. The GST-Rb-Sepharose beads were washed with 50 mM HEPES and 1 mM ATP and the radioactivity was measured on Scintillation counter (Topcount, HP)

Substance	Kinase Inhibition Cyclin E/CDK2 % Inhibition [1]	Kinase Inhibition Cyclin E/CDK2 IC30 [1]	Kinase Inhibition Cyclin D1/CDK4 % Inhibition [2]	Kinase Inhibition Cyclin D1/CDK4 IC30 [2]	inhibition of CDK2/Cyclin E phosphorylation of GST-Rb, in words [1]	inhibition of CDK4/Cyclin D1 phosphorylation of GST-Rb, in words [2]
FYHSKRR	45%	>200 µM	20%	–	–	–
FYHSKRRL	48%	>200 µM	20%	–	–	–
FYHSKRRLI (H-FYHSKRRLI-NH2)	45%	–	20%	–	–	–
FYHSKRRLIF	80%	–	70%	19 ± 3 µM	–	–
FYHSKRRLIFS	80%	6.8 ± 1.0 µM	70%	22 ± 5 µM	–	–
FYHSKRRLIFSK	70%	–	70%	41 ± 10 µM	–	–
HSKRRLI (H-HSKRRLI-NH2)	35%	–	10%	–	–	–
HSKRRLIFS	80%	–	65%	32 ± 6 µM	–	–
HSKRRLIFSKRK	90%	–	80%	34 ± 6 µM	–	–
KRRLIF	80%	–	72%	>200 µM	–	–
MTDFYHSKRRLI (H-MTDFYHSKRRLI-NH2)	35%	–	11%	–	–	–
SKRRLIF	80%	7.7 ± 0.5 µM	72%	54 µM	–	–
SKRRLIFSKRKP	70%	46 ± 33 µM	40%	–	–	–
SMTDFYHSKRRL (H-SMTDFYHSKRRL-NH2)	40%	–	18%	–	–	–
TDFYHSKRRLIF	85%	–	72%	15 ± 3 µM	–	–
TDFYHSKRRLIF [p21(148-159)]	–	–	–	–	active	active
TSMTDFYHSKRR (H-TSMTDFYHSKRR-NH2)	35%	–	30%	–	–	–
YHSKRRL	30%	>200 µM	10%	–	–	–
YHSKRRLI	45%	>200 µM	15%	–	–	–
YHSKRRLIF	80%	7 ± 2 µM	70%	16 ± 1 µM	–	–
YHSKRRLIFS	80%	7.3 ± 0.8 µM	70%	20 ± 1 µM	–	–
YHSKRRLIFSKR	80%	–	60%	45 ± 10 µM	–	–
